Values of other authors as cited in PubChem BioAssay AID1259409 (Chemical Carcinogenesis Research Information System (CCRIS), 2018).

Test system: rodent chemically induced tumor inhibition, incidence and multiplicity
Assay: CCRIS tumor inhibitor studies

## NC(=O)c1cccnc1
Carcinogen: N-NITROSOBIS(2-OXOPROPYL)AMINE, 60599-38-4, Dose [Inhibitor]: 0, 0.2% IN DRINKING WATER FOR 49 WK POST CARCINOGEN TREATMENT (STUDY DURATION: 52 WK), Route [Inhibitor]: ORAL, Species: HAMSTER, Strain/Sex: SYRIAN GOLDEN/FEMALE, Target Tissue: Type of Lesion: TRACHEA: PAPILLOMA, Dose [Carcinogen]: 10 MG/KG BW 1/WK FOR FIRST 3 WK OF STUDY DURATION, Promoter: NONE
  tumour outcome (control, treated, inhibition, significance): 1/30 (3%), 0/29 (0%), 100%, not significant
Carcinogen: N-NITROSOBIS(2-OXOPROPYL)AMINE, 60599-38-4, Dose [Inhibitor]: 0, 0.5% IN DRINKING WATER FOR 49 WK BEGINNING POST CARCINOGEN TREATMENT (STUDY DURATION: 52 WK), Route [Inhibitor]: ORAL, Species: HAMSTER, Strain/Sex: SYRIAN/FEMALE, Target Tissue: Type of Lesion: PANCREAS: ADENOCARCINOMA, Dose [Carcinogen]: 10 MG/KG 1/WK FOR 3 WK, Promoter: NONE
  tumour outcome (control, treated, inhibition, significance): 18/30 (60%), 21/30 (70%), -17%, not significant
Carcinogen: N-NITROSOBIS(2-OXOPROPYL)AMINE, 60599-38-4, Dose [Inhibitor]: 0, 0.5% IN DRINKING WATER FOR 49 WK POST CARCINOGEN TREATMENT (STUDY DURATION: 52 WK), Route [Inhibitor]: ORAL, Species: HAMSTER, Strain/Sex: SYRIAN GOLDEN/FEMALE, Target Tissue: Type of Lesion: KIDNEY: NEPHROBLASTOMA, Dose [Carcinogen]: 10 MG/KG BW 1/WK FOR FIRST 3 WK OF STUDY DURATION, Promoter: NONE
  tumour outcome (control, treated, inhibition, significance): 2/30 (7%), 0/30 (0%), 100%, not significant
Carcinogen: N-NITROSOBIS(2-OXOPROPYL)AMINE, 60599-38-4, Dose [Inhibitor]: 0, 0.5% IN DRINKING WATER FOR 49 WK POST CARCINOGEN TREATMENT (STUDY DURATION: 52 WK), Route [Inhibitor]: ORAL, Species: HAMSTER, Strain/Sex: SYRIAN GOLDEN/FEMALE, Target Tissue: Type of Lesion: KIDNEY: RENAL CELL ADENOMA, Dose [Carcinogen]: 10 MG/KG BW 1/WK FOR FIRST 3 WK OF STUDY DURATION, Promoter: NONE
  outcome: 0/30 (0%), 2/30 (7%), -100%, not significant
Carcinogen: N-NITROSOBIS(2-OXOPROPYL)AMINE, 60599-38-4, Dose [Inhibitor]: 0, 0.5% IN DRINKING WATER FOR 49 WK POST CARCINOGEN TREATMENT (STUDY DURATION: 52 WK), Route [Inhibitor]: ORAL, Species: HAMSTER, Strain/Sex: SYRIAN GOLDEN/FEMALE, Target Tissue: Type of Lesion: KIDNEY: RENAL CELL CARCINOMA, Dose [Carcinogen]: 10 MG/KG BW 1/WK FOR FIRST 3 WK OF STUDY DURATION, Promoter: NONE
  tumour outcome (control, treated, inhibition, significance): 1/30 (3%), 2/30 (7%), -133%, not significant
Carcinogen: N-NITROSOBIS(2-OXOPROPYL)AMINE, 60599-38-4, Dose [Inhibitor]: 0, 0.5% IN DRINKING WATER FOR 49 WK POST CARCINOGEN TREATMENT (STUDY DURATION: 52 WK), Route [Inhibitor]: ORAL, Species: HAMSTER, Strain/Sex: SYRIAN GOLDEN/FEMALE, Target Tissue: Type of Lesion: LIVER: CHOLANGIOCELLULAR ADENOMA, Dose [Carcinogen]: 10 MG/KG BW 1/WK FOR FIRST 3 WK OF STUDY DURATION, Promoter: NONE
  tumour outcome (control, treated, inhibition, significance): 1/30 (3%), 3/30 (10%), -233%, not significant
Carcinogen: N-NITROSOBIS(2-OXOPROPYL)AMINE, 60599-38-4, Dose [Inhibitor]: 0, 0.5% IN DRINKING WATER FOR 49 WK POST CARCINOGEN TREATMENT (STUDY DURATION: 52 WK), Route [Inhibitor]: ORAL, Species: HAMSTER, Strain/Sex: SYRIAN GOLDEN/FEMALE, Target Tissue: Type of Lesion: LIVER: CHOLANGIOCELLULAR CARCINOMA, Dose [Carcinogen]: 10 MG/KG BW 1/WK FOR FIRST 3 WK OF STUDY DURATION, Promoter: NONE
  outcome: 0/30 (0%), 3/30 (10%), -%, not significant
Carcinogen: N-NITROSOBIS(2-OXOPROPYL)AMINE, 60599-38-4, Dose [Inhibitor]: 0, 0.5% IN DRINKING WATER FOR 49 WK POST CARCINOGEN TREATMENT (STUDY DURATION: 52 WK), Route [Inhibitor]: ORAL, Species: HAMSTER, Strain/Sex: SYRIAN GOLDEN/FEMALE, Target Tissue: Type of Lesion: LIVER: CYSTADENOMA, Dose [Carcinogen]: 10 MG/KG BW 1/WK FOR FIRST 3 WK OF STUDY DURATION, Promoter: NONE
  outcome: 0/30 (0%), 2/30 (7%), -%, not significant
Carcinogen: N-NITROSOBIS(2-OXOPROPYL)AMINE, 60599-38-4, Dose [Inhibitor]: 0, 0.5% IN DRINKING WATER FOR 49 WK POST CARCINOGEN TREATMENT (STUDY DURATION: 52 WK), Route [Inhibitor]: ORAL, Species: HAMSTER, Strain/Sex: SYRIAN GOLDEN/FEMALE, Target Tissue: Type of Lesion: LIVER: HEPATOCELLULAR ADENOMA, Dose [Carcinogen]: 10 MG/KG BW 1/WK FOR FIRST 3 WK OF STUDY DURATION, Promoter: NONE
  tumour outcome (control, treated, inhibition, significance): 2/30 (7%), 4/30 (13%), -86%, not significant
Carcinogen: N-NITROSOBIS(2-OXOPROPYL)AMINE, 60599-38-4, Dose [Inhibitor]: 0, 0.5% IN DRINKING WATER FOR 49 WK POST CARCINOGEN TREATMENT (STUDY DURATION: 52 WK), Route [Inhibitor]: ORAL, Species: HAMSTER, Strain/Sex: SYRIAN GOLDEN/FEMALE, Target Tissue: Type of Lesion: LIVER: HEPATOCELLULAR CARCINOMA, Dose [Carcinogen]: 10 MG/KG BW 1/WK FOR FIRST 3 WK OF STUDY DURATION, Promoter: NONE
  tumour outcome (control, treated, inhibition, significance): 2/30 (7%), 2/30 (7%), 0%, not significant
Carcinogen: N-NITROSOBIS(2-OXOPROPYL)AMINE, 60599-38-4, Dose [Inhibitor]: 0, 0.5% IN DRINKING WATER FOR 49 WK POST CARCINOGEN TREATMENT (STUDY DURATION: 52 WK), Route [Inhibitor]: ORAL, Species: HAMSTER, Strain/Sex: SYRIAN GOLDEN/FEMALE, Target Tissue: Type of Lesion: LUNG: ADENOCARCINOMA, Dose [Carcinogen]: 10 MG/KG BW 1/WK FOR FIRST 3 WK OF STUDY DURATION, Promoter: NONE
  tumour outcome (control, treated, inhibition, significance): 11/30 (37%), 9/30 (30%), 19%, not significant
Carcinogen: N-NITROSOBIS(2-OXOPROPYL)AMINE, 60599-38-4, Dose [Inhibitor]: 0, 0.5% IN DRINKING WATER FOR 49 WK POST CARCINOGEN TREATMENT (STUDY DURATION: 52 WK), Route [Inhibitor]: ORAL, Species: HAMSTER, Strain/Sex: SYRIAN GOLDEN/FEMALE, Target Tissue: Type of Lesion: LUNG: ADENOMA, Dose [Carcinogen]: 10 MG/KG BW 1/WK FOR FIRST 3 WK OF STUDY DURATION, Promoter: NONE
  tumour outcome (control, treated, inhibition, significance): 15/30 (50%), 17/30 (56.7%), -13%, not significant
Carcinogen: N-NITROSOBIS(2-OXOPROPYL)AMINE, 60599-38-4, Dose [Inhibitor]: 0, 0.5% IN DRINKING WATER FOR 49 WK POST CARCINOGEN TREATMENT (STUDY DURATION: 52 WK), Route [Inhibitor]: ORAL, Species: HAMSTER, Strain/Sex: SYRIAN GOLDEN/FEMALE, Target Tissue: Type of Lesion: LUNG: SQUAMOUS CELL CARCINOMA, Dose [Carcinogen]: 10 MG/KG BW 1/WK FOR FIRST 3 WK OF STUDY DURATION, Promoter: NONE
  tumour outcome (control, treated, inhibition, significance): 2/30 (7%), 2/30 (7%), 0%, not significant
Carcinogen: N-NITROSOBIS(2-OXOPROPYL)AMINE, 60599-38-4, Dose [Inhibitor]: 0, 0.5% IN DRINKING WATER FOR 49 WK POST CARCINOGEN TREATMENT (STUDY DURATION: 52 WK), Route [Inhibitor]: ORAL, Species: HAMSTER, Strain/Sex: SYRIAN GOLDEN/FEMALE, Target Tissue: Type of Lesion: PANCREAS (DUCTAL): ADENOCARCINOMA, Dose [Carcinogen]: 10 MG/KG BW 1/WK FOR FIRST 3 WK OF STUDY DURATION, Promoter: NONE
  tumour outcome (control, treated, inhibition, significance): 18/30 (60%), 21/30 (70%), -17%, not significant
Carcinogen: N-NITROSOBIS(2-OXOPROPYL)AMINE, 60599-38-4, Dose [Inhibitor]: 0, 0.5% IN DRINKING WATER FOR 49 WK POST CARCINOGEN TREATMENT (STUDY DURATION: 52 WK), Route [Inhibitor]: ORAL, Species: HAMSTER, Strain/Sex: SYRIAN GOLDEN/FEMALE, Target Tissue: Type of Lesion: THYROID: ADENOMA, Dose [Carcinogen]: 10 MG/KG BW 1/WK FOR FIRST 3 WK OF STUDY DURATION, Promoter: NONE
  tumour outcome (control, treated, inhibition, significance): 1/30 (3%), 0/30 (0%), 100%, not significant
Carcinogen: N-NITROSOBIS(2-OXOPROPYL)AMINE, 60599-38-4, Dose [Inhibitor]: 0, 350 MG/KG 10 MIN PRIOR TO AND 3 HR POST CARCINOGEN DOSE (STUDY DURATION: 52 WK), Route [Inhibitor]: INTRAPERITONEAL, Species: HAMSTER, Strain/Sex: SYRIAN/MALE, FEMALE, Target Tissue: Type of Lesion: PANCREAS: DUCTAL/DUCTULAR CARCINOMA, Dose [Carcinogen]: 10 MG/KG ONCE, Promoter: NONE USED
  tumour outcome (control, treated, inhibition, significance): 5/60 (8%), 0/35 (0%), 100%, p<0.0001
Carcinogen: N-NITROSOBIS(2-OXOPROPYL)AMINE, 60599-38-4, Dose [Inhibitor]: 0, 350 MG/KG 10 MIN PRIOR TO AND 3 HR POST CARCINOGEN DOSE (STUDY DURATION: 52 WK), Route [Inhibitor]: INTRAPERITONEAL, Species: HAMSTER, Strain/Sex: SYRIAN/MALE, FEMALE, Target Tissue: Type of Lesion: PANCREAS: DUCTULAR ADENOMA, Dose [Carcinogen]: 10 MG/KG ONCE, Promoter: NONE USED
  tumour outcome (control, treated, inhibition, significance): 25/60 (42%), 5/35 (14%), 67%, p=0.05
Carcinogen: URETHANE, 51-79-6, Dose [Inhibitor]: 1.0% (1.02 MG/G BW/D) IN POWDERED DIET FOR 10 D POST CARCINOGEN DOSE (STUDY DURATION: 5 MO), Route [Inhibitor]: ORAL, Species: MOUSE, Strain/Sex: ICR/FEMALE, Target Tissue: Type of Lesion: LUNG: TUMOR, Dose [Carcinogen]: 1 MG/G ONCE, Promoter: NONE USED
  tumour outcome (control, treated, inhibition, significance): 27/31 (87%), 47/51 (92%), -6%, not calculated
Carcinogen: URETHANE, 51-79-6, Dose [Inhibitor]: 2.5% (2.83 MG/G BW/D) IN POWDERED DIET FOR 10 D POST CARCINOGEN DOSE (STUDY DURATION: 5 MO), Route [Inhibitor]: ORAL, Species: MOUSE, Strain/Sex: ICR/FEMALE, Target Tissue: Type of Lesion: LUNG: TUMOR, Dose [Carcinogen]: 1 MG/G ONCE, Promoter: NONE USED
  tumour outcome (control, treated, inhibition, significance): 27/31 (87%), 47/54 (87%), 0%, not calculated
